Test systems include A549 NSCLC; K-562 leukemia; SN12C renal; U251 CNS; UACC-257 melanoma; UACC-62 melanoma; UO-31 renal; EKVX NSCLC; DU-145 prostate.
Common to all, as to experiment: NCI-60 cell line screen, 48 h

Where “and” joins values, the source holds several entries; their conditions need not be identical. Identical values can stand only once.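 Interpolation was linear, between the two tested concentrations surrounding the appropriate level; five concentrations were tested over 48 hours in 96-well plates. Abbreviation: GI50, concentration required for 50% inhibition of growth. TGI: concentration producing complete growth inhibition.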 Some results are limits rather than exact numbers.

On to `CN1CC(C(=O)C2C(=O)c3ccccc3C2=O)C(=O)C(=O)C(C(=O)C2C(=O)c3ccccc3C2=O)C1` (configuration not stated), for which the TGI with A549 NSCLC, in the experiment on K-562 leukemia, in the experiment on SN12C renal, in the experiment with U251 CNS, in the experiment on UACC-257 melanoma and with UACC-62 melanoma was above 100 µM throughout. The TGI in the experiment with UO-31 renal is above 100 µM.

Regarding `CCCCOC(=O)NC(=O)c1cn(CCSCCOC(=O)NCCCCCCNC(=O)OCCSCCn2cc(C(=O)NC(=O)OCCCC)c(=O)[nH]c2=O)c(=O)[nH]c1=O`, the TGI was above 100 µM in the experiment on A549 NSCLC; above 100 µM with EKVX NSCLC; above 100 µM in the experiment with K-562 leukemia; above 100 µM with SN12C renal; 74.1 µM with U251 CNS; above 100 µM with UACC-257 melanoma. Moreover, the TGI in the experiment with UACC-62 melanoma and with UO-31 renal was above 100 µM in each case.

Turning to `COc1cc2c(cc1O)CC13CCC(=O)N1CCc1cc(OC)c(O)c-2c13` (configuration not stated), the TGI with A549 NSCLC, with EKVX NSCLC, in the experiment on K-562 leukemia, in the experiment on SN12C renal, in the experiment with UACC-257 melanoma and with UACC-62 melanoma was above 68.1 µM throughout. Moreover, in the experiment on UO-31 renal, the TGI is above 68.1 µM.

As for `CCOC(=O)/C=C/C(C(=O)/C=C/c1ccc(O)c(OC)c1)=C(O)\C=C\c1ccc(O)c(OC)c1`, the GI50 was 4.84 µM in the experiment with A549 NSCLC; 4.43 µM in the experiment on DU-145 prostate; 5.75 µM with EKVX NSCLC; 5.66 µM in the experiment on K-562 leukemia; 1.88 µM in the experiment on SN12C renal; 0.613 µM in the experiment on U251 CNS. Further, the GI50 in the experiment on UACC-257 melanoma was 2.06 µM; in the experiment on UACC-62 melanoma, 1.85 µM; in the experiment with UO-31 renal, 16.9 µM. In addition, the TGI in the experiment with A549 NSCLC was 24.5 µM; in the experiment on DU-145 prostate, 18.7 µM; in the experiment on EKVX NSCLC it was 42 µM; in the experiment on K-562 leukemia, above 100 µM; with SN12C renal, 8.16 µM; with U251 CNS it was 12.5 µM. Besides, the results for the TGI in the experiment with UACC-257 melanoma, in the experiment on UACC-62 melanoma and in the experiment with UO-31 renal were 4.9 µM, 3.76 µM and 49.1 µM, respectively.

Turning to `CC(=O)CCCCO`, the TGI with A549 NSCLC, in the experiment with EKVX NSCLC, in the experiment on K-562 leukemia, with SN12C renal, with U251 CNS and with UACC-257 melanoma was above 100 µM throughout. The TGI in the experiment on UACC-62 melanoma and in the experiment on UO-31 renal was above 100 µM throughout.

Take `COc1ccccc1NC(=O)C1=C(C)NC(C)=C(C(=O)Nc2ccccc2OC)C1c1ccc(C)cc1`: the TGI in the experiment with EKVX NSCLC, in the experiment with K-562 leukemia, in the experiment on SN12C renal, in the experiment with U251 CNS, in the experiment on UACC-257 melanoma and with UACC-62 melanoma was above 100 µM throughout. In the experiment with UO-31 renal, the TGI is above 100 µM.

`Fc1ccc(C2SCc3nc4ccccc4n32)cc1` (configuration not stated): the TGI in the experiment with A549 NSCLC is above 100 µM; with EKVX NSCLC, above 100 µM; with K-562 leukemia, above 100 µM; in the experiment with SN12C renal it was above 100 µM; in the experiment on U251 CNS, above 100 µM; in the experiment with UO-31 renal it was 70.1 µM.

For the compound `O=C(CC(=O)N1N=C(N2c3ccccc3Sc3ccccc32)CC1c1ccccc1)Nc1ccc(Cl)cc1` (configuration not stated), the TGI in the experiment with A549 NSCLC, in the experiment with EKVX NSCLC, in the experiment on SN12C renal, with U251 CNS, with UACC-257 melanoma and with UACC-62 melanoma was above 100 µM throughout. For the same compound, in the experiment with UO-31 renal, the TGI was above 100 µM.

For `NC(=O)C(c1ccccc1)N1CCOCC1` (configuration not stated), the TGI in the experiment on A549 NSCLC, in the experiment with K-562 leukemia, in the experiment with SN12C renal, in the experiment on U251 CNS, in the experiment with UACC-257 melanoma and in the experiment on UACC-62 melanoma was above 100 µM each time. For the same compound, in the experiment with UO-31 renal, the TGI was above 100 µM.

As to `CC(=O)OC1(C)C(=O)OC1(C)C(C)=O` (configuration not stated), the TGI in the experiment with A549 NSCLC, in the experiment on EKVX NSCLC, in the experiment with K-562 leukemia, in the experiment with SN12C renal, with U251 CNS and with UACC-257 melanoma was above 100 µM each time. Besides, the TGI in the experiment on UACC-62 melanoma and with UO-31 renal was above 100 µM throughout.

Turning to `O=C1C(=O)N(c2ccc(Cl)cc2Cl)C(=O)C(=O)C1c1nc2ccccc2o1`, the TGI with A549 NSCLC, in the experiment on EKVX NSCLC, in the experiment with K-562 leukemia, in the experiment on SN12C renal, in the experiment on U251 CNS and in the experiment with UACC-257 melanoma was above 100 µM throughout. Further, the TGI in the experiment on UACC-62 melanoma and in the experiment on UO-31 renal was above 100 µM in each case.

`c1ccc2c(c1)[nH]c1cnc3c4cccnc4[nH]c3c12`: the TGI in the experiment with A549 NSCLC was 34.7 µM; with EKVX NSCLC, 39 µM; with K-562 leukemia, 46.4 µM; in the experiment with SN12C renal, 34.1 µM; in the experiment on UACC-257 melanoma, 52.4 µM; in the experiment on UACC-62 melanoma, 31.1 µM. The compound further returned a TGI in the experiment with UO-31 renal of 33 µM.

Take `O=C1CN(C(=O)c2ccccc2)Cc2[nH]c3ccccc3c21`: the TGI in the experiment on A549 NSCLC, in the experiment with EKVX NSCLC, in the experiment on K-562 leukemia, in the experiment with SN12C renal, with U251 CNS and with UACC-257 melanoma was above 100 µM each time. Besides, the TGI in the experiment with UACC-62 melanoma and in the experiment on UO-31 renal was above 100 µM in each case.

Consider `O=C(OCC1CO1)c1cccs1` (configuration not stated), for which the TGI with A549 NSCLC, with EKVX NSCLC, with K-562 leukemia, in the experiment with SN12C renal, in the experiment with UACC-257 melanoma and in the experiment with UACC-62 melanoma was above 100 µM each time. The compound also displayed a TGI with UO-31 renal above 100 µM.

Take `CCN(CCCl)CCCNc1c2ccccc2nc2ccc(OC)cc12`: the TGI in the experiment on A549 NSCLC is 1300 µM; in the experiment with UO-31 renal, 2060 µM. The GI50 in the experiment on EKVX NSCLC was 557 µM; in the experiment with K-562 leukemia, 116 µM; with SN12C renal it was 274 µM; with U251 CNS, 387 µM; in the experiment on UACC-257 melanoma, 457 µM; in the experiment with UACC-62 melanoma, 255 µM.

Consider `CC(=O)OCC1OC(OC2CC3C(C)(C)C(O)CC[C@]3(C)C3CCC45CC4(CC[C@H]5C(C)CC(O)C4OC4(C)C)[C@]23C)C(O)C(O)C1O` (some centres not stated), for which the GI50 was 12.3 µM with A549 NSCLC; 13.7 µM in the experiment on EKVX NSCLC; 5.17 µM in the experiment with U251 CNS; 4.99 µM with UACC-62 melanoma; 17.7 µM with UO-31 renal. Also, the TGI in the experiment on A549 NSCLC was 18.5 µM and 27.1 µM; with EKVX NSCLC, 15.9 µM and 29.2 µM; with K-562 leukemia, 4.12 µM and 16.2 µM; in the experiment on SN12C renal, 15.2 µM and 21.6 µM; in the experiment on U251 CNS it was 10.3 µM and 16.5 µM; in the experiment with UACC-257 melanoma, 16.1 µM and 22.6 µM. For the same compound, the TGI in the experiment on UACC-62 melanoma is 14.2 µM and 17.3 µM; in the experiment on UO-31 renal, 15.4 µM and 31.6 µM.

In the case of `C1OC1CO[C@@H]1CO[C@H]2[C@@H]1OC[C@H]2OCC1CO1` (some centres not stated), the TGI with A549 NSCLC, in the experiment with EKVX NSCLC, with K-562 leukemia, in the experiment with SN12C renal, with U251 CNS and with UACC-257 melanoma was above 100 µM each time. Further, the TGI in the experiment on UACC-62 melanoma and in the experiment with UO-31 renal was above 100 µM in each case.

For the compound `CCOC(=O)C1SC(=Nc2ccc(Cl)c(Cl)c2)N=C1C` (configuration not stated), the TGI in the experiment with A549 NSCLC is above 100 µM; in the experiment on EKVX NSCLC it was above 100 µM; in the experiment on K-562 leukemia it was 32.5 µM; in the experiment on SN12C renal it was 53 µM; in the experiment on U251 CNS, above 100 µM; with UACC-257 melanoma, above 100 µM. The TGI in the experiment with UACC-62 melanoma and with UO-31 renal was above 100 µM throughout.

As to `Cc1cc(NS(=O)(=O)c2ccc(NC(=O)c3cccc4c(Nc5ccc(S(=O)(=O)N=C(N)N)cc5)c5ccccc5nc34)cc2)no1`, the TGI with A549 NSCLC, with EKVX NSCLC, in the experiment on K-562 leukemia, with SN12C renal, in the experiment with U251 CNS and with UACC-257 melanoma was above 100 µM each time. Besides, the TGI in the experiment on UACC-62 melanoma and with UO-31 renal was above 100 µM in each case.

In the case of `CC#CC1/C(=C\C(=O)OC)CCCC1O` (configuration not stated), the TGI with A549 NSCLC, in the experiment with EKVX NSCLC, in the experiment with K-562 leukemia, with SN12C renal, with U251 CNS and in the experiment on UACC-257 melanoma was above 100 µM throughout. In addition, the TGI with UACC-62 melanoma and in the experiment on UO-31 renal was above 100 µM throughout.

As to `Nc1c(C(=O)Nc2ccccc2)[n+]([O-])c2ccccc2[n+]1[O-]`, the TGI in the experiment with A549 NSCLC was 68 µM; in the experiment on EKVX NSCLC, 56.9 µM; in the experiment on K-562 leukemia, above 100 µM; with SN12C renal it was 31.4 µM; in the experiment with U251 CNS, 26.3 µM; in the experiment with UACC-257 melanoma, 59.4 µM. In addition, the TGI in the experiment with UACC-62 melanoma is 22.6 µM; with UO-31 renal, 42 µM.

Consider `O=C(C(=O)N1CC2C=CC1CC2)c1c[nH]c2ccccc12` (configuration not stated), for which the TGI in the experiment on A549 NSCLC, in the experiment on K-562 leukemia, in the experiment on SN12C renal, in the experiment on U251 CNS, in the experiment with UACC-257 melanoma and in the experiment with UACC-62 melanoma was above 100 µM throughout. Moreover, the TGI in the experiment on UO-31 renal was above 100 µM.

On to `CC1=CCC23C(C1)OC(Br)(C=CC2(C)O)C3(C)C` (configuration not stated), for which the TGI in the experiment with A549 NSCLC, in the experiment with EKVX NSCLC, with K-562 leukemia, with SN12C renal, in the experiment on UACC-257 melanoma and in the experiment with UACC-62 melanoma was above 100 µM each time.

The record behind these values is PubChem BioAssay (NCI).
